Data on seven substances can be found in patent US6734161B1, “Peptide nucleic acids having antibacterial activity” (priority 1997, dated 2004).

For data set [1], the system named is E. coli lac repressor gene (start codon region). Kind of data set: PNA-mediated upregulation of beta-galactosidase on X-gal LB/agar plate. The following applies: lawn of E. coli AS19 on LB/agar with X-gal. It is filed as cell-based. The protocol:
An antisense PNA (H-[…]-Lys-NH2, SEQ ID No: 27) was prepared targeting the start codon region of the E. coli lac repressor gene. The lacR gene normally limits beta-galactosidase expression in E. coli cells that are grown in nutrient rich conditions, without lactose. The anti-lacR PNA (SEQ ID No: 27) was applied to a lawn of E. coli AS19 cells grown on a LB/agar plate containing a chromogenic beta-galactosidase substrate (X-gal). The petri plate was prepared as described above.

In data set [2] the test system is β-Galactosidase (start codon region). Kind of data set: in vitro coupled transcription/translation in E. coli S-30 cell extract, β-galactosidase production. It is filed as biochemical. As for the experimental part:
(§1) Strain D10-1 was grown to mid log phase in LB media supplemented with 4 g/L glucose. The preparation of S-30 cell extracts and coupled transcription/translation reactions were carried out as described in Ellman, J., ibid., using plasmid pMAS2, which carries the E. coli gene for β-galactosidase.
PNA oligomers (SEQ ID NOs. 5-8 above) were evaluated in an in vitro assay in which plasmid DNA encoding the genes for β-galactosidase and β-lactamase were added to a template depleted e. coli S-30 cell extract along with the reagents necessary for coupled transcription and translation (Chen, H. Z., Zubay, G., Methods in Enzymol., 1983, 101, 674-690; Ellman, J., et al., Methods in Enzymol., 1991, 202, 301-337). The assay is sensitive to inhibitors that prevent initiation of translation.

For data set [3], the system named is β-lactamase (start codon region). It is filed as biochemical, E. coli. The following applies: for IC50: read-out: PNA concentration required for 50 % inhibition (IC50) of β-lactamase activity, S-30 cell extract, unmodified gene.
In the next data set the test system is β-lactamase. The following applies: for inhibition of β-lactamase production in strain carrying two base substitutions: AS19 transformed with pLac-2, compared with pBR322; for inhibition of β-lactamase production in strain carrying 6 base substitutions: AS19 transformed with pLac-6.
In data set [4] the test system is E. coli mutant strain (AS19). Kind of data set: cell growth assay using E. coli (AS19). The following applies: 100 μL liquid cultures.
Description: Growth assays were initiated using Luria Broth (LB) Media inoculated with 1% (v/v) of an overnight E. coli culture. […] For liquid media cultures, 100 μL of inoculated LB media was aliquoted into microtitre plate wells containing PNA or antibiotic solutions and the plates were incubated overnight at 37° C. The presence or absence of growth was assessed visually as a zone of clearing on solid media or as a lack of turbidity in liquid cultures.
The assay was repeated with the cells in 100 μL liquid cultures. […] The inhibition was determined to be that concentration which visibly limited the growth of the E. coli in a 100 μL culture.
The test system of a further data set is E. coli strain K12. In words: cell growth assay using E. coli (K12). The following applies: 2 μL applied onto solid media, overnight 37° C.
Data set [5] concerns Ribosomal RNAs. Kind of data set: transcription vs. translation assay (32P-UTP and 35S-methionine incorporation). It is filed as biochemical, E. coli. The following applies: increasing concentrations of PNA. As for the experimental part:
Transcription in the cell-free system was assayed using reactions that contained 34 μM of cold UTP and 1 μCi ^32P-UTP. After 30 minutes the reactions were stopped with 10 volumes of 5% TCA and incubated on ice for 30 minutes. Translation in the cell-free system was assayed using reactions that contained 5 mM cold UTP and 1 μCi ^35S-methionine. After 30 minutes the reactions were stopped with an equal volume of 1 M NaOH and placed at 37° C. for 15 minutes. An equal volume of cold 50% TCA containing 2% casein hydrolysate acids was added and after 30 minutes on ice, 1 mL of 5% TCA was added. The TCA precipitable material having radioactivity was collected by vacuum filtration, rinsed five times with 5% TCA and dried. Cerenkov and scintillation counting were used to determine ^32P-UTP and ^35S-methionine incorporation.
The transcription and translation activities yielding β-galactosidase was examined using ^32P-UTP and ^35S-methionine in the assay procedures of Example 5. With increasing concentrations of targeted PNA (SEQ ID NOs. 12 and 13), the level of radioactive methionine incorporation was reduced.

For data set [6], the system named is Ribosomal RNAs. In words: cell-free translation assay (β-galactosidase production) with PNA targeted to ribosomal RNAs. It is filed as biochemical, E. coli. The following applies: S-30 cell extract, ONPG. The protocol:
as §1
Plasmid DNA encoding β-galactosidase was added to a template depleted E. coli S-30 cell extract along with the reagents necessary for coupled transcription/translation (Chen, ibid; Ellman, J., ibid). Production of β-galactosidase was measured […] using the substrate ONPG (Miller, ibid). The assay is sensitive to inhibitors that prevent complete or accurate translation of the enzyme. Several of the targeted PNAs inhibited β-galactosidase production in a dose dependent manner, with IC50s in the nanomolar range. […] The SEQ ID Nos. and the sequences are shown below in Table 2.
PNAs of similar composition, but unrelated sequence, were assayed along with targeted PNAs as controls for non-sequence specific effects. […] No inhibition was detected at a dose of 1 μM for the control PNAs.

[7] abbreviates: concentrations as high as 400 nM.

{LysNH2} = C-terminal lysine amide

Description for E. coli strain K12: Growth assays were initiated using Luria Broth (LB) Media inoculated with 1% (v/v) of an overnight E. coli culture. For solid media cultures, 2 mL of molten LB/agar media was inoculated and spread onto pre-warmed (LB)/agar plates. The excess molten media was poured off and the plates were left to solidity for 30 minutes. PNA and antibiotic solutions were pipetted (2 μL) directly onto the solidified overlay and the plates were incubated overnight at 37° C. For liquid media cultures, 100 μL of inoculated LB media was aliquoted into microtitre plate wells containing PNA or antibiotic solutions and the plates were incubated overnight at 37° C. The presence or absence of growth was assessed visually as a zone of clearing on solid media or as a lack of turbidity in liquid cultures.
The inhibition of cell growth was examined using PNA sequences 9-18 in E. coli grown on agar media. Luria broth (LB)/agar plates were prepared with a thin overlay of media containing an inoculum of E. coli strain K12. PNA solutions were applied directly onto the solidified overlay by direct pipetting of 2 μL aliquotes. After overnight incubation at 37° C., a lawn of bacterial cells was established.

Turning to “27 (ACATTCACCACCCTG; all peptide nucleic acid (PNA), 3' {LysNH2}; further chemistry not fully specified) [compound 27]”, in data set [1], the “beta-galactosidase production (blue zone at sites of application)” value is on record as “Increased beta-galactosidase production”.
Regarding “8 (ACGCCACATCTTCGC; chemistry not given here) [compound 8]”, in data set [2] (setting [7]), the “inhibition of β-galactosidase production” value is “no inhibition”. Further, the “inhibition of β-lactamase production” value in data set [3] (setting [7]) is recorded as “no inhibition”.
“6 (TACTCATACTCTTCC; chemistry not given here) [compound 6]”: the IC50 in data set [3] worked out at 30 nM. In the data set on β-lactamase, the “inhibition of β-lactamase production in strain carrying two base substitutions” value is “reduced” and the “inhibition of β-lactamase production in strain carrying 6 base substitutions” value is recorded as “abolished”.
For “7 (GAATACTCATACTCT; chemistry not given here) [compound 7]”, in that order: 200 nM, “reduced” and “abolished”.
In the case of “13 (NTNTNNTNTCCTCTC; listed as DNA, chemistry not given here) [compound 13]”, the “concentration which visibly limited growth” value in data set [4] is 10 µM. Besides, in the data set on E. coli strain K12, the “growth inhibition (zones of clearing)” value is given as “inhibited cell growth”. In addition, in the data set with Ribosomal RNAs [5], the “level of radioactive UTP (transcription)” value was “remained the same” and the “level of radioactive methionine incorporation (translation)” value is given as “reduced”. In the data set on Ribosomal RNAs [6], this substance registered an IC50 of 350 nM.
For “12 (TTNTNNNTTTNTNTCTTTCCGTCTT; listed as DNA, chemistry not given here) [compound 12]”, in that order: 30 µM, “inhibited cell growth”, “remained the same”, “reduced” and 200 nM.
Turning to “5 (GGTCATAGCTGTTTC; all peptide nucleic acid (PNA), 3' {LysNH2}; further chemistry not fully specified) [compound 5]”, the IC50 in data set [2] (read-out: PNA concentration required for 50 % inhibition (IC50) of β-galactosidase activity, S-30 cell extract, coupled transcription and translation) was determined as 10 nM.
